{"source": "PubChem BioAssay AID210", "about": "(DTP/NCI, 2004)", "test_system": "CD2F1 mice, ip Colon 26 adenocarcinoma, median survival T/C", "assay": "NCI In Vivo Anticancer Drug Screen. Data for tumor model Colon 26 Adenocarcinoma (intraperitoneal) in CD2F1 (CDF1) mice", "details": "endpoint: median survival time, higher = longer survival", "method": "The antitumor activity of compounds was measured in mice bearing transplantable tumors. Survival or tumor size were measured and the results are expressed as the measurement made in the treated group (T) divided by the measurement made in the vehicle treated control group (C). The tumor model used in this assay is Colon 26 Adenocarcinoma (intraperitoneal) in CD2F1 (CDF1) mice", "note": "Where “and” joins values, the source holds several entries; their conditions need not be identical. Equal values may be shown once. Inconclusive results and toxic doses are left out.", "data": [{"smiles": "CC(C)CCCCCCCCCCCCC(=O)NCC(=O)NC1C(O)C(O)C(Nc2ncnc3nc[nH]c23)OC1C(O)CO", "note": "(configuration not stated)", "values": [{"measurement": "T/C", "setting": "dose: 0.5 mg/kg/injection, schedule: Q04DX003 (ip), vehicle: Klucel (hydroxypropylcellulose) (HPC)", "value": "91 % of control"}, {"measurement": "T/C", "setting": "dose: 1.0 mg/kg/injection, schedule: Q04DX003 (ip), vehicle: Klucel (hydroxypropylcellulose) (HPC)", "value": "97 % of control"}, {"measurement": "T/C", "setting": "dose: 2.0 mg/kg/injection, schedule: Q04DX003 (ip), vehicle: Klucel (hydroxypropylcellulose) (HPC)", "value": "101 % of control"}, {"measurement": "T/C", "setting": "dose: 4.0 mg/kg/injection, schedule: Q04DX003 (ip), vehicle: Klucel (hydroxypropylcellulose) (HPC)", "value": "103 % of control"}]}, {"smiles": "CC[C@](O)(C(=O)O)c1cc2n(c(=O)c1CO)Cc1cc3ccccc3nc1-2", "values": [{"measurement": "T/C", "setting": "dose: 6.25 mg/kg/injection, schedule: Q04DX003 (ip), vehicle: saline", "value": "114 % of control"}, {"measurement": "T/C", "setting": "dose: 12.5 mg/kg/injection, schedule: Q04DX003 (ip), vehicle: saline", "value": "111 % of control"}, {"measurement": "T/C", "setting": "dose: 25.0 mg/kg/injection, schedule: Q04DX003 (ip), vehicle: saline", "value": "121 % of control"}]}, {"smiles": "O=c1[nH]cc(F)c(=O)[nH]1", "values": [{"measurement": "T/C", "setting": "dose: 28.8 mg/kg/injection, schedule: Q04DX003 (sc), vehicle: other", "value": "120 % of control"}, {"measurement": "T/C", "setting": "dose: 36.0 mg/kg/injection, schedule: Q04DX003 (ip), vehicle: saline", "value": "175 % of control"}, {"measurement": "T/C", "setting": "dose: 40.0 mg/kg/injection, schedule: Q04DX003 (ip), vehicle: saline", "value": "186 % of control"}, {"measurement": "T/C", "setting": "dose: 60.0 mg/kg/injection, schedule: Q04DX003 (ip), vehicle: saline", "value": "164 % of control"}, {"measurement": "T/C", "setting": "dose: 70.0 mg/kg/injection, schedule: Q07DX003 (ip), vehicle: saline", "value": "152 % of control"}, {"measurement": "T/C", "setting": "dose: 80.0 mg/kg/injection, schedule: Q04DX003 (ip), vehicle: saline", "value": "95 % of control"}, {"measurement": "T/C", "setting": "dose: 100.0 mg/kg/injection, schedule: Q04DX003 (ip), vehicle: saline", "value": "79 % of control"}, {"measurement": "T/C", "setting": "dose: 100.0 mg/kg/injection, schedule: Q07DX003 (ip), vehicle: saline", "value": "165 % of control"}, {"measurement": "T/C", "setting": "dose: 140.0 mg/kg/injection, schedule: Q07DX003 (ip), vehicle: saline", "value": "150 % of control"}, {"measurement": "T/C", "setting": "dose: 160.0 mg/kg/injection, schedule: Q04DX003 (ip), vehicle: saline", "value": "74 % of control"}]}, {"smiles": "CC1CC(C)CC(C)C(O)/C(C#N)=C/C=C/CC(C2CCCC2C(=O)O)OC(=O)CC(O)C(C)C1", "note": "(configuration not stated)", "values": [{"measurement": "T/C", "setting": "dose: 0.5 mg/kg/injection, schedule: Q04DX003 (ip), vehicle: saline", "value": "103 % of control"}, {"measurement": "T/C", "setting": "dose: 1.0 mg/kg/injection, schedule: Q04DX003 (ip), vehicle: saline", "value": "105 % of control"}, {"measurement": "T/C", "setting": "dose: 2.0 mg/kg/injection, schedule: Q04DX003 (ip), vehicle: saline", "value": "100 % of control"}]}, {"smiles": "CC/C(=C(/CC)c1ccc(O)cc1)c1ccc(O)cc1", "values": [{"measurement": "T/C", "setting": "dose: 25.0 mg/kg/injection, schedule: Q04DX003 (ip), vehicle: saline with Tween-80", "value": "91 % of control"}, {"measurement": "T/C", "setting": "dose: 50.0 mg/kg/injection, schedule: Q04DX003 (ip), vehicle: saline with Tween-80", "value": "103 % of control"}, {"measurement": "T/C", "setting": "dose: 100.0 mg/kg/injection, schedule: Q04DX003 (ip), vehicle: saline with Tween-80", "value": "89 % of control"}]}, {"smiles": "CC(=O)C1(O)Cc2c(O)c3c(c(O)c2C(OC2CC(N)C(O)C(C)O2)C1)C(=O)c1ccccc1C3=O", "note": "(configuration not stated)", "values": [{"measurement": "T/C", "setting": "dose: 1.4 mg/kg/injection, schedule: Q07DX002 (iv), vehicle: saline", "value": "107 % of control"}, {"measurement": "T/C", "setting": "dose: 2.3 mg/kg/injection, schedule: Q07DX002 (iv), vehicle: saline", "value": "120 % of control"}, {"measurement": "T/C", "setting": "dose: 324.0 micrograms/kg/injection, schedule: Q04DX003 (ip), vehicle: water", "value": "157 % of control"}, {"measurement": "T/C", "setting": "dose: 900.0 micrograms/kg/injection, schedule: Q04DX003 (ip), vehicle: water", "value": "92 % of control"}]}, {"smiles": "CC1=CCCC(C)(O)C2CC(CCC3(C)OC3CC1)C(C)C(=O)O2", "note": "(configuration not stated)", "values": [{"measurement": "T/C", "setting": "dose: 22.5 mg/kg/injection, schedule: Q04DX002 (ip), vehicle: Klucel (hydroxypropylcellulose) (HPC)", "value": "98 % of control"}, {"measurement": "T/C", "setting": "dose: 45.0 mg/kg/injection, schedule: Q04DX002 (ip), vehicle: Klucel (hydroxypropylcellulose) (HPC)", "value": "100 % of control"}, {"measurement": "T/C", "setting": "dose: 90.0 mg/kg/injection, schedule: Q04DX002 (ip), vehicle: Klucel (hydroxypropylcellulose) (HPC)", "value": "100 % of control"}, {"measurement": "T/C", "setting": "dose: 180.0 mg/kg/injection, schedule: Q04DX002 (ip), vehicle: Klucel (hydroxypropylcellulose) (HPC)", "value": "102 % of control"}]}, {"smiles": "C=CCCC(=O)CCCC(=O)O[C@@H]1[C@@H]2[C@H](CC1(C)C)[C@H](O)[C@@]13O[C@@H]1[C@H](O)[C@@]1(CO1)[C@@]23C", "values": [{"measurement": "T/C", "setting": "dose: 6.25 micrograms/kg/injection, schedule: Q04DX002 (ip), vehicle: Klucel (hydroxypropylcellulose) (HPC)", "value": "123 % of control"}, {"measurement": "T/C", "setting": "dose: 25.0 micrograms/kg/injection, schedule: Q04DX002 (ip), vehicle: Klucel (hydroxypropylcellulose) (HPC)", "value": "119 % of control and 120 % of control"}, {"measurement": "T/C", "setting": "dose: 50.0 micrograms/kg/injection, schedule: Q04DX002 (ip), vehicle: Klucel (hydroxypropylcellulose) (HPC)", "value": "102 % of control and 98 % of control"}, {"measurement": "T/C", "setting": "dose: 100.0 micrograms/kg/injection, schedule: Q04DX002 (ip), vehicle: Klucel (hydroxypropylcellulose) (HPC)", "value": "117 % of control"}, {"measurement": "T/C", "setting": "dose: 200.0 micrograms/kg/injection, schedule: Q04DX002 (ip), vehicle: Klucel (hydroxypropylcellulose) (HPC)", "value": "120 % of control and 88 % of control"}, {"measurement": "T/C", "setting": "dose: 400.0 micrograms/kg/injection, schedule: Q04DX002 (ip), vehicle: Klucel (hydroxypropylcellulose) (HPC)", "value": "100 % of control"}]}]}
